Reference: article PMC7782499, “Progerinin, an optimized progerin-lamin A binding inhibitor, ameliorates premature senescence phenotypes of Hutchinson-Gilford progeria syndrome” (Communications Biology, 2021)
Several values for one entry are separate records, joined by “and”; a condition that tells them apart may be missing. Equal entries are not always repeated.

Tested on: Lmna G609G/+ mouse
Assay: Body weight of Lmna G609G/+ mice
Assay type: in vivo
Details: for Lmna G609G/+ body weight, Ave: group average; for Lmna G609G/+ body weight: individual mouse
Excerpt: Fig. 3 In vivo favorable effect of SLC-D011. A Gross morphology of Lmna^G609G/G609G mice (10 weeks old) was ameliorated after injection with SLC-D011. At the same age, the experimental group (D011) of mice were larger than vehicle-injected control (Con) subjects regardless of gender. B, C SLC-D011 increases body weight B and extends life span C of Lmna^G609G/G609G progeria model mouse (Con: n = 8; SLC-D011: n = 8). Compared with 14.8 weeks of average (ave) life span with maximum (max) life span of 15.5 weeks, 20 mg/kg of intraperitoneal (i.p) injection (twice a week) of SLC-D011 could extend the life span upto 19 weeks (max = 21 weeks). Lmna^G609G/G609G mice were injected with SLC-D011 from age of 5-week old, *p < 0.05. D Gross morphology of SLC-D011 injected Lmna^G609G/+ mouse. […] E SLC-D011 increases body weights of Lmna^G609G/+ mice (Con: n = 10; SLC-D011: n = 11), *p < 0.05. F Favorable effect of SLC-D011 on life span of Lmna^G609G/+ mice. Compared with vehicle-injected control group (ave = 46.7 weeks and max = 48 weeks), SLC-D011 treatment obviously extended the average life span to 63 weeks (max = 64 weeks). The injection was started from 32 weeks old, **p < 0.001. “Con” means vehicle (a solvent composed of DMSO and PBS)-injected mouse group. TEXT PRINTED IN THE PICTURE: (C) D011: Kaplan-Meier survival curve in Lmna^G609G/G609G: Ave=19; Kaplan-Meier survival curve in Lmna^G609G/G609G: Max=21 | (F) D011: Kaplan-Meier survival curve in Lmna^G609G/+: Ave=63; Kaplan-Meier survival curve in Lmna^G609G/+: Max=64 DOUBTS OF THE COPYIST ABOUT THIS PICTURE: Panels C and F: the Ave/Max labels are not printed with a group name. They are assigned to D011 (solid curve) or Con (dashed curve) only by their position beside the curves. / Panel C Ave=14.8, Max=15.5 and panel F Ave=46.7, Max=48 stand beside the dashed Con curve. They are left out because Con is the control group, not a substance. / No unit is printed with the Ave/Max values. Only the axis reads Age (weeks).
Animal experiments were performed in a facility certified by the Association for Assessment and Accreditation of Laboratory Animal Care in compliance with animal policies approved by Pusan National University. The mouse work was performed under the study protocol PNU-2019-2181, as approved by the Institutional Animal Care and Use Committee. Lmna^G609G/609G mice were generated by timed mating of heterozygous Lmna^G609G/+ provided by Carlos López-Otín (Universidad de Oviedo, Asturias, Oviedo, Spain). SLC-D011 was mixed with dimethyl sulfoxide (DMSO) and phosphate-buffered saline (PBS). It was then intraperitoneally injected into mice (20 mg/kg twice per week from 5-week-old). SLC-D011 and lonafarnib were orally administrated to mice daily at a concentration of 10 mg/ml in monoolein-based solution. Lonafarnib was generously provided by Merck, the Progeria Research Foundation (PRF) and the PRF Lonafarnib Pre-clinical Drug Supply Program. Control mice were treated with monoolein-based solution alone in the same way. Lmna^G609G/609G mice were treated with clear chemical solution throughout the life span, starting from 5 weeks of age. Lmna^G609G/+ mice were treated via intraperitoneal and oral administrations, starting from 32 weeks of age.
Fig. S10. Or al administration of SLC-D011 suppresses premature aging features of LmnaG609G/+ mi c e . A.
Gross morphology of SLC-D011 treated Lmna G609G/+ mice at 36 weeks old. B. Oral administration of SLC-
D011 increases body weight s of LmnaG609G/+ mi c e (untreated: n=11; SLC-D011: n=12), * p<0.05. C. […]
intensity of H3K9me3 levels in lung, liver, and kidney tissues of age-matched Lmn a +/+ mouse, untreated
LamnG609G/+ mouse and two progerinin- treated LmnaG609G/+ mice (n = 2 independent experiments; one
Student’s t -test), **p < 0.001,*p< 0.05, N.S: not significant .AU, arbitrary units.
Fig. S12. […] A. SLC-D011, compar ed to lonafarnib, reduces […]

[1] = column after week 64 (head empty), IP injection with SLC-D011, ratio to week 32
[2] = week 32, IP injection with SLC-D011, ratio to week 32
[3] = week 33, IP injection with SLC-D011, ratio to week 32
[4] = week 34, IP injection with SLC-D011, ratio to week 32
[5] = week 35, IP injection with SLC-D011, ratio to week 32
[6] = week 36, IP injection with SLC-D011, ratio to week 32
[7] = week 37, IP injection with SLC-D011, ratio to week 32
[8] = week 38, IP injection with SLC-D011, ratio to week 32
[9] = week 39, IP injection with SLC-D011, ratio to week 32
[10] = week 40, IP injection with SLC-D011, ratio to week 32
[11] = week 41, IP injection with SLC-D011, ratio to week 32
[12] = week 42, IP injection with SLC-D011, ratio to week 32
[13] = week 43, IP injection with SLC-D011, ratio to week 32
[14] = week 44, IP injection with SLC-D011, ratio to week 32
[15] = week 45, IP injection with SLC-D011, ratio to week 32
[16] = week 46, IP injection with SLC-D011, ratio to week 32
[17] = week 47, IP injection with SLC-D011, ratio to week 32
[18] = week 48, IP injection with SLC-D011, ratio to week 32
[19] = week 49, IP injection with SLC-D011, ratio to week 32
[20] = week 50, IP injection with SLC-D011, ratio to week 32
[21] = week 51, IP injection with SLC-D011, ratio to week 32
[22] = week 52, IP injection with SLC-D011, ratio to week 32
[23] = week 53, IP injection with SLC-D011, ratio to week 32
[24] = week 54, IP injection with SLC-D011, ratio to week 32
[25] = week 55, IP injection with SLC-D011, ratio to week 32
[26] = week 56, IP injection with SLC-D011, ratio to week 32
[27] = week 57, IP injection with SLC-D011, ratio to week 32
[28] = week 58, IP injection with SLC-D011, ratio to week 32
[29] = week 59, IP injection with SLC-D011, ratio to week 32
[30] = week 60, IP injection with SLC-D011, ratio to week 32
[31] = week 61, IP injection with SLC-D011, ratio to week 32
[32] = week 62, IP injection with SLC-D011, ratio to week 32
[33] = week 63, IP injection with SLC-D011, ratio to week 32
[34] = week 64, IP injection with SLC-D011, ratio to week 32

SMILES: CC1(C)Oc2cc3oc(=O)ccc3cc2C[C@@H]1OC/C=C/c1ccccc1 [SLC-D011]
- Lmna G609G/+ body weight, Ave [1]: 0
- Lmna G609G/+ body weight [1]: 0
- Lmna G609G/+ body weight, Ave (oral administration, week 36, relative body weight): 1
- Lmna G609G/+ body weight, Ave (oral administration, week 38, relative body weight): 1.017
- Lmna G609G/+ body weight, Ave (oral administration, week 40, relative body weight): 1.063
- Lmna G609G/+ body weight, Ave (oral administration, week 42, relative body weight): 0.9995
- Lmna G609G/+ body weight, Ave (oral administration, week 44, relative body weight): 0.9298
- Lmna G609G/+ body weight, Ave (oral administration, week 46, relative body weight): 0.9013
- Lmna G609G/+ body weight, Ave (oral administration, week 48, relative body weight): 0.862
- Lmna G609G/+ body weight, Ave (oral administration, week 50, relative body weight): 0.8331
- Lmna G609G/+ body weight, Ave (oral administration, week 52, relative body weight): 0.7877
- Lmna G609G/+ body weight, Ave (oral administration, week 54, relative body weight): 0.7841
- Lmna G609G/+ body weight, Ave (oral administration, week 56, relative body weight): 0.7247
- Lmna G609G/+ body weight, Ave (oral administration, week 58, relative body weight): 0.7038
- Lmna G609G/+ body weight, Ave (oral administration, week 60, relative body weight): 0.6602
- Lmna G609G/+ body weight, Ave (oral administration, week 62, relative body weight): 0.5992
- Lmna G609G/+ body weight, Ave (oral administration, week 64, relative body weight): 0.3905
- Lmna G609G/+ body weight, Ave (oral administration, week 66, relative body weight): 0
- Lmna G609G/+ body weight, Ave [2]: 1
- Lmna G609G/+ body weight [2]: 1
- Lmna G609G/+ body weight, Ave [3]: 1.01
- Lmna G609G/+ body weight [3]: 1 and 1.038
- Lmna G609G/+ body weight, Ave [4]: 1.003
- Lmna G609G/+ body weight [4]: 1 and 0.9583 and 1.038
- Lmna G609G/+ body weight, Ave [5]: 0.9948
- Lmna G609G/+ body weight [5]: 1 and 0.9167 and 1.038
- Lmna G609G/+ body weight, Ave [6]: 0.9886
- Lmna G609G/+ body weight [6]: 1 and 0.9583
- Lmna G609G/+ body weight, Ave [7]: 0.9733
- Lmna G609G/+ body weight [7]: 1 and 0.9167
- Lmna G609G/+ body weight, Ave [8]: 0.9619
- Lmna G609G/+ body weight [8]: 0.9565 and 0.9167 and 1
- Lmna G609G/+ body weight, Ave [9]: 0.9549
- Lmna G609G/+ body weight [9]: 0.9565 and 0.9167 and 0.9615
- Lmna G609G/+ body weight, Ave [10]: 0.925
- Lmna G609G/+ body weight [10]: 0.913 and 0.875 and 0.9615 and 0.963
- Lmna G609G/+ body weight, Ave [11]: 0.925
- Lmna G609G/+ body weight [11]: 0.913 and 0.875 and 0.9615 and 0.963
- Lmna G609G/+ body weight, Ave [12]: 0.9069
- Lmna G609G/+ body weight [12]: 0.913 and 0.8333 and 0.9231 and 0.963
- Lmna G609G/+ body weight, Ave [13]: 0.9077
- Lmna G609G/+ body weight [13]: 0.913 and 0.875 and 0.9231 and 0.9259
- Lmna G609G/+ body weight, Ave [14]: 0.8732
- Lmna G609G/+ body weight [14]: 0.8696 and 0.7917 and 0.9231 and 0.9259
- Lmna G609G/+ body weight, Ave [15]: 0.8778
- Lmna G609G/+ body weight [15]: 0.8696 and 0.8333 and 0.9231 and 0.8889
- Lmna G609G/+ body weight, Ave [16]: 0.8769
- Lmna G609G/+ body weight [16]: 0.8696 and 0.7917 and 0.9615 and 0.8889
- Lmna G609G/+ body weight, Ave [17]: 0.8478
- Lmna G609G/+ body weight [17]: 0.8261 and 0.7917 and 0.9231 and 0.8519
- Lmna G609G/+ body weight, Ave [18]: 0.8359
- Lmna G609G/+ body weight [18]: 0.8261 and 0.75 and 0.9231 and 0.8519
- Lmna G609G/+ body weight, Ave [19]: 0.8036
- Lmna G609G/+ body weight [19]: 0.7826 and 0.75 and 0.8846 and 0.7778
- Lmna G609G/+ body weight, Ave [20]: 0.8111
- Lmna G609G/+ body weight [20]: 0.7826 and 0.7917 and 0.8846 and 0.7778
- Lmna G609G/+ body weight, Ave [21]: 0.8111
- Lmna G609G/+ body weight [21]: 0.7826 and 0.7917 and 0.8846 and 0.7778
- Lmna G609G/+ body weight, Ave [22]: 0.7901
- Lmna G609G/+ body weight [22]: 0.7826 and 0.75 and 0.8462
- Lmna G609G/+ body weight, Ave [23]: 0.7931
- Lmna G609G/+ body weight [23]: 0.7826 and 0.7917 and 0.8462
- Lmna G609G/+ body weight, Ave [24]: 0.7747
- Lmna G609G/+ body weight [24]: 0.7391 and 0.7917 and 0.8077
- Lmna G609G/+ body weight, Ave [25]: 0.7712
- Lmna G609G/+ body weight [25]: 0.7391 and 0.7917 and 0.8077
- Lmna G609G/+ body weight, Ave [26]: 0.7636
- Lmna G609G/+ body weight [26]: 0.7391 and 0.75 and 0.8077
- Lmna G609G/+ body weight, Ave [27]: 0.7611
- Lmna G609G/+ body weight [27]: 0.7391 and 0.75 and 0.8077
- Lmna G609G/+ body weight, Ave [28]: 0.746
- Lmna G609G/+ body weight [28]: 0.6957 and 0.6667 and 0.8077
- Lmna G609G/+ body weight, Ave [29]: 0.6892
- Lmna G609G/+ body weight [29]: 0.7391 and 0 and 0.8077
- Lmna G609G/+ body weight, Ave [30]: 0.6894
- Lmna G609G/+ body weight [30]: 0.6957 and 0.7692
- Lmna G609G/+ body weight, Ave [31]: 0.6156
- Lmna G609G/+ body weight [31]: 0.6087 and 0.7692
- Lmna G609G/+ body weight, Ave [32]: 0.5947
- Lmna G609G/+ body weight [32]: 0 and 0.6923
- Lmna G609G/+ body weight, Ave [33]: 0.5548
- Lmna G609G/+ body weight [33]: 0.6923
- Lmna G609G/+ body weight, Ave [34]: 0.2637
- Lmna G609G/+ body weight [34]: 0.6154
